In US5319085A, “Quinoline derivative having serotonin-3 receptor antagonizing activity” (priority 1990, dated 1994):

Assays:
ddY strain male mice = experiment: Acute toxicity, minimum lethal dose; assay type: in vivo; settings: mortality for 7 days
Procedure: The test Compound was orally and intraperitoneally administered to ddY strain male mice weighing 20 to 25 g. MLD (Minimum Lethal Dose) was determined by observing the mortality for 7 days after the administration.

5HT3 receptor = 5HT3 receptor binding test, [3H] quipazine, NG108-15 cell membrane fraction; design: species or system rat; settings: for Inhibition Rate (%) (Concentration 10^-7 M) / Inhibition Rate (%) (Concentration 10^-8 M): inhibition of 2 nM [3H] quipazine binding; for Ki: [3H] quipazine, Cheng Prusoff equation, 37° C., 60 minutes
Procedure: Using rat neuroblastoma-glyoma NG108-15 cell membrane fraction, the binding activities of the test compounds to 5HT3 receptor were examined.
A membrane fraction of NG108-15 cells was prepared according to the method of Neijt et al. [Naunyn-Schmiedeberg's Arch. Parmacol. 337, 493-499 (1988)].
The receptor binding experiment was performed using [^3 H] quipazine [J. Neurochem., 52, 1787 (1989)], a high affinity ligand to 5HT3 receptor.
A membrane fraction obtained from 4×10^5 NG108-15 cells was suspended in 1 ml of 20 mM Tris-hydrochloride buffer (pH 7.5) containing 154 mM sodium chloride. Then, 2 nM [^3 H] quipazine (2519.7 GBq/mmol; Du Pont Co., Ltd.) and various concentrations of the test compound were added to the suspension followed by incubating at 37° C. for 60 minutes. Then, 4 ml of an ice-cooled buffer was added to terminate the reaction and then the mixture was filtered through CF/C glass fiber filter (Whatmann Co., Ltd.). The filter was washed with the buffer, and put in a scintillation vial. Scintisol EX-H (Wako Pure Chemicals, Inc.) was added to the scintillation vial. Radioactivity on the filter was counted in a liquid scintillation counter.
An inhibition rate of the [^3 H] quipazine binding for the test compound was estimated according to the equation; [formula]
Ki values were estimated based on the resultant inhibition rates according to the Cheng Prusoff equation.
In this test, the comparison was made between Compound (I) and Compound C disclosed in Japanese Published Unexamined Patent Application No. 72886/85 as the reference compound.

[1] = system: Cisplatin-induced vomiting; experiment: Activity against Cisplatin-induced vomiting; assay type: in vivo, Suncus mirinus; settings: for Number of Vomiting (mean ± S.E.M.): 5 to 120 minutes; for Latency (min.) (mean ± S.E.M.): time to first vomiting
Procedure: Female and male Suncus mirinus animals weighing 23 to 68 g were used, one group consisting of 5 to 10 animals. According to the method of Matsuki et al. (Japan J. Pharmacol., 48, 303 (1988)], the animals were isolated in metal mesh cage (one animal/one cage). One hour after, the test compound or physiological saline (control) was intraperitoneally administered (i.p.) in a volume of 10 ul/g of body weight. Further 30 minutes after administration of the test compound, Cisplatin (20 or 40 mg/kg) was intraperitoneally administered. After administration of Cisplatin, a time period (latency) for the first vomiting and the number of frequencies of vomiting caused in the period of 5 to 120 minutes after administration, were determined. The latency and the number of frequencies in the test compound administered group were compared with those in the control group. The test of significance was performed by Student's t-test.

[2] = 0.1 mg/kg i.p., Cisplatin 40 mg/kg
[3] = 0.3 mg/kg i.p., Cisplatin 40 mg/kg
[4] = 1.0 mg/kg i.p., Cisplatin 40 mg/kg
[5] = 10.0 mg/kg i.p., Cisplatin 40 mg/kg
[6] = 0.01 mg/kg i.p., Cisplatin 20 mg/kg
[7] = 0.03 mg/kg i.p., Cisplatin 20 mg/kg
[8] = 0.1 mg/kg i.p., Cisplatin 20 mg/kg
[9] = 0.3 mg/kg i.p., Cisplatin 20 mg/kg
[10] = 1.0 mg/kg i.p., Cisplatin 20 mg/kg

Compound | MLD (Minimum Lethal Dose) (ddY strain male mice; i.p.) [mg/kg] | MLD (Minimum Lethal Dose) (ddY strain male mice; p.o.) [mg/kg] | Inhibition Rate (%) (Concentration 10^-7 M) (5HT3 receptor) | Inhibition Rate (%) (Concentration 10^-8 M) (5HT3 receptor) | Ki (5HT3 receptor) [nM] | further results
CCCCCOc1cc(C(=O)O[C@H]2C[C@H]3CC[C@@H](C2)N3C)c2ccccc2n1 [Compound 8Sa, Endo-(8-methyl-8-azabicyclo[3.2.1]oct-3-yl) 2-n-pentyloxy-4-quinolinecarboxylate] | > 300 | > 100 | 97 | 94 | 0.86 | 
CN1[C@@H]2CC[C@H]1C[C@@H](OC(=O)c1cnc3ccccc3c1O)C2 [5S'a, Endo-(8-methyl-8-azabicyclo[3.2.1]oct-3-yl) 4-hydroxy-3-quinolinecarboxylate] | > 300 | > 100 | 107 |  | 6.1 | Number of Vomiting (mean ± S.E.M.) [1, 2]: 29.6 ± 3.5; Latency (min.) (mean ± S.E.M.) [1, 2]: 41.4 ± 0.7 min; Number of Vomiting (mean ± S.E.M.) [1, 3]: 13.2 ± 4.8; Latency (min.) (mean ± S.E.M.) [1, 3]: 69.6 ± 13.4 min; Number of Vomiting (mean ± S.E.M.) [1, 4]: 4.3 ± 2.4; Latency (min.) (mean ± S.E.M.) [1, 4]: 103.5 ± 10.3 min; Number of Vomiting (mean ± S.E.M.) [1, 5]: 7.6 ± 7.6; Latency (min.) (mean ± S.E.M.) [1, 5]: 105.1 ± 14.9 min
CCOc1cc(C(=O)O[C@H]2C[C@H]3CC[C@@H](C2)N3C)c2ccccc2n1 [Compound 10Sa, Endo-(8-methyl-8-azabicyclo[3.2.1]oct-3-yl) 2-ethoxy-4-quinolinecarboxylate] | 100 | 50 | 99 | 96 | 0.88 | 
CN1[C@@H]2CCC[C@H]1C[C@@H](OC(=O)c1cnc3ccccc3c1)C2 [CSa, Endo-(9-methyl-9-azabicyclo[3.3.1]non-3-yl) 3-quinolinecarboxylate, reference compound] |  |  | 84 | 12 | 29 | 
CCCOc1cc(C(=O)O[C@H]2C[C@H]3CC[C@@H](C2)N3C)c2ccccc2n1 [Compound 2Sa, Endo-(8-methyl-8-azabicyclo[3.2.1]oct-3-yl) 2-n-propoxy-4-quinolinecarboxylate] | 100 | 100 | 104 | 101 | 0.32 | 
CN1[C@@H]2CC[C@H]1C[C@@H](NC(=O)c1cnc3ccccc3c1O)C2 [Compound 6Sa, Endo-N-(8-methyl-8-azabicyclo[3.2.1]oct-3-yl)-4-hydroxy-3-quinolinecarboxamide] | > 300 | > 100 | 101 | 89 | 2.1 | Number of Vomiting (mean ± S.E.M.) [1, 6]: 10.0 ± 4.0; Latency (min.) (mean ± S.E.M.) [1, 6]: 58.2 ± 9.9 min; Number of Vomiting (mean ± S.E.M.) [1, 7]: 8.2 ± 1.4; Latency (min.) (mean ± S.E.M.) [1, 7]: 52.6 ± 4.2 min; Number of Vomiting (mean ± S.E.M.) [1, 8]: 7.4 ± 2.6; Latency (min.) (mean ± S.E.M.) [1, 8]: 85.7 ± 9.7 min; Number of Vomiting (mean ± S.E.M.) [1, 9]: 0.0 ± 0; Latency (min.) (mean ± S.E.M.) [1, 9]: 120.0 ± 0 min; Number of Vomiting (mean ± S.E.M.) [1, 10]: 0.0 ± 0; Latency (min.) (mean ± S.E.M.) [1, 10]: 120.0 ± 0 min
CCCCOc1cc(C(=O)O[C@H]2C[C@H]3CC[C@@H](C2)N3C)c2ccccc2n1 [Compound 1Sa, Endo-(8-methyl-8-azabicyclo[3.2.1]oct-3-yl) 2-n-butoxy-4-quinolinecarboxylate] | 200 | 100 | 104 | 99 | 0.39 | 
CC(C)COc1cc(C(=O)O[C@H]2C[C@H]3CC[C@@H](C2)N3C)c2ccccc2n1 [Compound 7Sa, Endo-(8-methyl-8-azabicyclo[3.2.1]oct-3-yl) 2-isobutoxy-4-quinolinecarboxylate] | 300 | > 100 | 108 | 101 | 0.44 | 
CCCCCCOc1cc(C(=O)O[C@H]2C[C@H]3CC[C@@H](C2)N3C)c2ccccc2n1 [Compound 9Sa, Endo-(8-methyl-8-azabicyclo[3.2.1]oct-3-yl) 2-n-hexyloxy-4-quinolinecarboxylate] | > 300 | 50 | 97 | 74 | 3.2 | 
CC(C)Oc1cc(C(=O)O[C@H]2C[C@H]3CC[C@@H](C2)N3C)c2ccccc2n1 [Compound 3Sa, Endo-(8-methyl-8-azabicyclo[3.2.1]oct-3-yl) 2-isopropoxy-4-quinolinecarboxylate] | 200 | > 100 | 104 | 101 | 0.31 | 
COc1cc(C(=O)O[C@H]2C[C@H]3CC[C@@H](C2)N3C)c2ccccc2n1 [Compound 4Sa, Endo-(8-methyl-8-azabicyclo[3.2.1]oct-3-yl) 2-methoxy-4-quinolinecarboxylate] | 200 | 50 | 104 | 98 | 0.58 | 
